# Values joined by “and” are separate entries in the source; they are usually repeats but may differ in a detail not shown here. Equal entries are not always repeated. Where two headings read alike, the source gives them in different places.
# Tests used:
# S. venezuelae = S. venezuelae sporulation inhibition disk diffusion assay (whi phenotype, SEM); format: cell-based, Streptomyces venezuelae; conditions: for Sporulation inhibition: disk with 10 μL antibiotic, 48 h, white halo in sub-MIC region; for Aerial hyphae septation by SEM: lawn immediately adjacent to the zone of inhibition
# Method: A lawn of S. venezuelae spores was plated on MYM agar plates and allowed to dry. For the initial screen, 2 μL of each molecule at 2.5 mM was spotted directly to the agar plate. For known antibiotics or follow-up screening, 10 μL of molecule was added to a drug disk, allowed to dry, and placed on the agar plate. The S. venezuelae plate was incubated at 30°C for 48 hours and photographed. The whi phenotype was identified by eye. Hits were selected based on their ability to induce a whi phenotype at sub-inhibitory concentrations and scored by eye on the size of the induced whi region and the zone of inhibition.
# To prepare samples for SEM, the agar plate containing a lawn of S. venezuelae was cut at the edge of the zone of inhibition and fixed with 2% glutaraldehyde in 0.1% sodium cacodylate buffer followed by sputter coating with gold. Images were obtained and processed using a FEI XL30 ESEM. The contrast of the resulting images was adjusted to highlight the appearance or lack of spore formation.
# S. aureus = experiment: Minimum inhibitory concentration, broth dilution, S. aureus strains; format: cell-based, Staphylococcus aureus
# Method: (§1) The minimum inhibitory concentration (MIC) defines the lowest concentration of a compound required to inhibit the growth. A single colony of the bacteria being tested was grown in 5 mL of liquid growth media. Following overnight growth, the culture was diluted 100-fold into fresh media and incubated at 37°C until the cells reached mid-log phase (OD600 of 0.3 to 0.5). The cells were diluted 10,000-fold into fresh media and the MIC determined for each of the strains by adding 2 μL of the diluted compound to 198 μL of the diluted cells in a clear 96-well plate. The plates were incubated at 37°C overnight and the optical density at 600 nm was measured for each well. All MIC assays were performed in triplicate.
# E. coli = experiment: Minimum inhibitory concentration, broth dilution, E. coli strains; format: cell-based, Escherichia coli
# Method: as §1
# S. aureus gyrase [1] = target: T1, S. aureus gyrase (Staphylococcus aureus, UniProt P0A0K8+P20831); experiment: S. aureus gyrase supercoiling; format: biochemical; conditions: purified S. aureus gyrase, wild-type
# T1 construct: purchased Inspiralis Inc. SAS4001 (supercoiling kit); SAGC001 (cleavage assay kit)
# Method: (§2) 1 U of DNA gyrase was incubated with 0.5 μg of relaxed pBR322 DNA in a 30 μl reaction at 37°C for 30 minutes under the following conditions: 35 mM Tris.HCl (pH 7.5), 24 mM KCl, 4 mM MgCl2, 2 mM DTT, 1.8 mM Spermidine, 1 mM ATP, 6.5% (w/v) glycerol and 0.1 mg/mL BSA. Each reaction was stopped by the addition of 30 μl chloroform/iso-amyl alcohol (24:1) and 20 μl Stop Dye (40% sucrose, 100 mM Tris.HCl (pH 7.5), 10 mM EDTA, 0.5 μg/mL bromophenol blue), before being loaded on a 1.0% TAE (Tris.acetate […], EDTA […]) agarose gel. Gels run at 90 V for 2 hours. Bands were visualized by ethidium staining for 20 minutes and destaining in water for 20 minutes. Gels were scanned using a gel documentation system (GeneGenius, Syngene, Cambridge, UK) and percent inhibition levels obtained with gel scanning software (GeneTools, Syngene, Cambridge,UK).
# (§3) As for E. coli gyrase except assay conditions were: 40 mM HEPES. KOH (pH 7.6), 10 mM magnesium acetate, 10 mM DTT, 2 mM ATP, 500 mM potassium glutamate, and 0.05 mg/mL BSA. Gels run at 80 V for 3 hours.
# E. coli gyrase = target: T2, E. coli gyrase (Escherichia coli, UniProt P0AES4+P0AES6); experiment: E. coli gyrase supercoiling; format: biochemical; conditions: purified E. coli gyrase
# T2 construct: purchased Inspiralis Inc. K0001
# Method: as §2
# [2] = target: T3, S. aureus topoisomerase IV (Staphylococcus aureus, UniProt P0C1S7+P0C1U9); experiment: S. aureus topoisomerase IV decatenation; format: biochemical; conditions: purified S. aureus topoisomerase IV; no activity up to; read-out: IC50, topoisomerase IV-catalyzed decatenation
# T3 construct: purchased Inspiralis Inc. SAD4001
# Method: 1 U of topoisomerase IV was incubated with 200 ng kDNA DNA in a 30 μl reaction at 37 C for 30 minutes under the following conditions: 50 mM HEPES-KOH (pH 7.6), 100 mM potassium glutamate, 10 mM magnesium acetate, 10 mM dithiothreitol, 1 mM ATP and 50 μg/mL BSA. Each reaction was stopped by the addition of 30 μl chloroform/iso-amyl alcohol (24:1) and 20 μl Stop Dye, before being loaded on a 1.0% TAE agarose gel. Gels run at 90 V for 2 hours.
# As for E coli topoisomerase IV except assay conditions were: 50 mM Tris-HCl (7.5), 5 mM MgCl2, 5 mM DTT, 1.5 mM ATP, 350 mM potassium glutamate and 0.05 mg/mL BSA. Gels run at 80 V for 2 hours.
# S. aureus gyrase [3] = target: T1, S. aureus gyrase; experiment: S. aureus gyrase cleavage; format: biochemical
# Method: 1 U of gyrase was incubated with 0.5 μg of supercoiled pBR322 DNA in a 30 μL reaction at 37 C for 30 minutes under the following conditions: 40 mM HEPES. KOH (pH 7.6), 10 mM magnesium acetate, 10 mM DTT, 100 mM potassium glutamate and 0.05 mg/mL albumin. 0.2 % SDS and 0.1 mg/mL Proteinase K were added before a further incubation at 37°C for 30 minutes. Each reaction was stopped by the addition of 30 μL chloroform/iso-amyl alcohol (24:1) and 20 μL Stop Dye, before being loaded on a 1.0% TAE agarose gel. Gels run at 80 V for 2 hours.
# S. aureus gyrase [4] = target: T1, S. aureus gyrase; experiment: S. aureus gyrase relaxation; format: biochemical; conditions: ATP-independent
# Method: 1 U of gyrase was incubated with 0.5 μg of supercoiled pBR322 DNA in a 30 μL reaction at 37°C for 60 minutes under the following conditions: 50 mM Tris.HCl (pH 7.5), 5 mM MgCl2,5 mM DTT, 350 mM potassium glutamate, and 0.05 mg/mL albumin. Each reaction was stopped by the addition of 30 μL chloroform/iso-amyl alcohol (24:1) and 20 μl Stop Dye, before being loaded on a 1.0% TAE agarose gel. Gels run at 80 V for 2 hours.
# [5] = target: T4, S. aureus gyrase GyrA S84L (Staphylococcus aureus, UniProt P0A0K8+P20831, S84L); experiment: Supercoiling inhibition of S. aureus gyrase mutant GyrA S84L; format: biochemical; conditions: for Susceptibility of gyrase mutant GyrA S84L: S. aureus gyrase
# T4 construct: purchased Inspiralis Inc. SAAS84L01
# Method: as §2, §3
# HEK293 cells = experiment: Toxicity against human HEK293 cells; format: cell-based
# From the text: The experimental model that we have employed is Staphyloccocus aureus strain ATCC 29213. We have used the cell line HEK293, as a control for EN-7 toxicity against human cells.
# [6] = Staphylococcus aureus, ATCC29213, S. aureus parent strain (ATCC 29213), read-out: MIC
# [7] = Staphylococcus aureus, EN-7-resistant S. aureus mutants
# [8] = Staphylococcus aureus, ATCC29213, S. aureus ATCC 29213 (wild-type, parent strain), read-out: MIC
compound,measurement,setting,value
"O=C(O)c1cn(C2CC2)c2cc(N3CCNCC3)c(F)cc2c1=O [ciprofloxacin, reference compound]",Sporulation inhibition,S. venezuelae,+
same,Aerial hyphae septation by SEM,S. venezuelae,do not show any aerial hyphae septation
same,MIC,S. aureus; [6],0.2 µg/mL
same,MIC,S. aureus; [7],0.2 µg/mL
bleomycin,Sporulation inhibition,S. venezuelae,+
"CO[C@@H]1[C@@H](OC(N)=O)[C@@H](O)[C@H](Oc2ccc3c(O)c(NC(=O)c4ccc(O)c(CC=C(C)C)c4)c(=O)oc3c2C)OC1(C)C [novobiocin, reference compound]",Sporulation inhibition,S. venezuelae,+
same,MIC,S. aureus; [6],0.06 µg/mL
same,MIC,S. aureus; [7],0.06 µg/mL
"CO[C@H]1/C=C/O[C@@]2(C)Oc3c(C)c(O)c4c(O)c(c(/C=N/N5CCN(C)CC5)c(O)c4c3C2=O)NC(=O)/C(C)=C\C=C\[C@H](C)[C@H](O)[C@@H](C)[C@@H](O)[C@@H](C)[C@H](OC(C)=O)[C@@H]1C [Rifampicin, rifampicin]",Sporulation inhibition,S. venezuelae,−
same,Aerial hyphae septation by SEM,S. venezuelae,septated aerial hyphae
O=C(/C=C/c1cccc2cccnc12)NNC(=O)c1cc(-c2ccccc2)on1 [EN-7],Growth inhibition (zone of inhibition),"S. venezuelae; filter disk, 10 μL of 2.5 mM",significant zone of inhibition
same,Sporulation inhibition below the MIC for growth,"S. venezuelae; filter disk, 10 μL of 2.5 mM",striking band of inhibited sporulation
same,MIC,"S. aureus; S. aureus clinical strain C0018, read-out: MIC",>128 µM
same,MIC,"S. aureus; S. aureus clinical strain C0032, read-out: MIC",>128 µM
same,MIC,"S. aureus; S. aureus clinical strain C0117, read-out: MIC",>128 µM
same,MIC,S. aureus; [8],1 µM
same,MIC,"S. aureus; Staphylococcus aureus, ATCC29213, nine EN-7-resistant S. aureus ATCC 29213 mutants (mut-1 to mut-9), 16 μM highest concentration tested",> 16 µM
same,MIC,"S. aureus; Staphylococcus aureus, ATCC29213, three S. aureus ATCC 29213 GyrB K417E allelic exchange strains",> 128 µM
same,MIC,"S. aureus; Staphylococcus aureus, ATCC 29213 / ATCC 33591, S. aureus three laboratory strains (ATCC 29213, TCH1516, ATCC 33591) and four clinical strains (C0017, C0024, C0023, C0019), read-out: MIC",0.4 µg/mL
same,MIC,"S. aureus; Staphylococcus aureus, ATCC33519, S. aureus ATCC 33519, read-out: MIC",1 µM
same,MIC,"S. aureus; Staphylococcus aureus, S. aureus TCH 1516, read-out: MIC",1 µM
same,MIC,"S. aureus; Staphylococcus aureus, S. aureus clinical strain C0017, read-out: MIC",1 µM
same,MIC,"S. aureus; Staphylococcus aureus, S. aureus clinical strain C0018, read-out: MIC",> 128 µM
same,MIC,"S. aureus; Staphylococcus aureus, S. aureus clinical strain C0019, read-out: MIC",1 µM
same,MIC,"S. aureus; Staphylococcus aureus, S. aureus clinical strain C0023, read-out: MIC",1 µM
same,MIC,"S. aureus; Staphylococcus aureus, S. aureus clinical strain C0024, read-out: MIC",1 µM
same,MIC,"S. aureus; Staphylococcus aureus, S. aureus clinical strain C0032, read-out: MIC",> 128 µM
same,MIC,"S. aureus; Staphylococcus aureus, S. aureus clinical strain C0112, read-out: MIC",4 µM
same,MIC,"S. aureus; Staphylococcus aureus, S. aureus clinical strain C0117, read-out: MIC",> 128 µM
same,MIC,"E. coli; E. coli BW25113, read-out: MIC",>64 µM
same,MIC,"E. coli; E. coli MC1061, read-out: MIC",>64 µM
same,MIC,"E. coli; Escherichia coli, BW25113, E. coli BW25113, read-out: MIC",> 64 µM
same,MIC,"E. coli; Escherichia coli, BW25113, E. coli BW25113 ΔtolC ΔbamB, outer-membrane and efflux-deficient",1 µM
same,MIC,"E. coli; Escherichia coli, E. coli MC1061, read-out: MIC",> 64 µM
same,IC50,S. aureus gyrase [1],85 nM
same,IC50,E. coli gyrase,1750 nM
same,IC50,[2],> 100000 nM
same,Occurrence of DNA nicking,"S. aureus gyrase [3]; S. aureus gyrase, pBR322",does increase the occurrence of DNA nicking
same,Stabilization of gyrase-DNA double-stranded cleavage complex,"S. aureus gyrase [3]; S. aureus gyrase, pBR322",does not stabilize
same,Effect on ciprofloxacin-induced formation of the double-stranded cleavage complex,S. aureus gyrase [3]; co-treatment with ciprofloxacin,does not prevent
same,Inhibition of gyrase-induced DNA relaxation,S. aureus gyrase [4],inhibit
same,IC50,"S. aureus gyrase [4]; read-out: IC50, gyrase-induced relaxation",100 to 500 nM
same,IC50,[5],9960 nM
same,Increase of IC50 relative to the wild-type enzyme,"[5]; GyrA S84L vs wild-type S. aureus gyrase, supercoiling inhibition",> 100 fold and ~100 fold
same,Susceptibility of gyrase mutant GyrA S84L,[5],less susceptible
same,Toxicity to human HEK293 cells,HEK293 cells,no toxicity
"CN[C@H](CC(C)C)C(=O)N[C@H]1C(=O)N[C@@H](CC(N)=O)C(=O)N[C@H]2C(=O)N[C@H]3C(=O)N[C@H](C(=O)N[C@H](C(=O)O)c4cc(O)cc(O)c4-c4cc3ccc4O)[C@H](O)c3ccc(c(Cl)c3)Oc3cc2cc(c3O[C@@H]2O[C@H](CO)[C@@H](O)[C@H](O)[C@H]2O[C@H]2C[C@](C)(N)[C@H](O)[C@H](C)O2)Oc2ccc(cc2Cl)[C@H]1O [Vancomycin, vancomycin]",Sporulation inhibition,S. venezuelae,−
"NC[C@H]1O[C@H](O[C@H]2[C@H](O)[C@@H](O[C@H]3O[C@H](CO)[C@@H](O)[C@H](N)[C@H]3O)[C@H](N)C[C@@H]2N)[C@H](O)[C@@H](O)[C@@H]1O [Kanamycin, kanamycin]",Sporulation inhibition,S. venezuelae,−
same,Aerial hyphae septation by SEM,S. venezuelae,septated aerial hyphae
"COc1c(N2C[C@@H]3CCCN[C@@H]3C2)c(F)cc2c(=O)c(C(=O)O)cn(C3CC3)c12 [moxifloxacin, reference compound]",Inhibition of gyrase-induced DNA relaxation,S. aureus gyrase [4],inhibit
same,Susceptibility of gyrase mutant GyrA S84L,[5],less susceptible
"Oc1cc(Cl)ccc1Oc1ccc(Cl)cc1Cl [Triclosan, triclosan]",Sporulation inhibition,S. venezuelae,−
"O=c1ccc2ncc(=O)n3c2n1C[C@H]3CN1CCC(NCc2cc3c(cn2)OCCC3)CC1 [gepotidacin, reference compound]",MIC,S. aureus; [8],0.5 µM
same,MIC,"S. aureus; Staphylococcus aureus, EN-7-resistant S. aureus strains with GyrB D437N (mut-7, mut-8)",32 µM
"N#CC(C#N)=NNc1cccc(Cl)c1 [CCCP, carbonyl cyanide m-chlorophenyl hydrazone]",Sporulation inhibition,S. venezuelae,−
"CO[C@@]12[C@H](COC(N)=O)C3=C(C(=O)C(C)=C(N)C3=O)N1C[C@@H]1N[C@@H]12 [Mitomycin C, mitomycin C]",Sporulation inhibition,S. venezuelae,+
same,Aerial hyphae septation by SEM,S. venezuelae,do not show any aerial hyphae septation
